Laboratory results: a melting point compilation (Tetko et al.; mined from patent text by program, amines drawn as free bases though some values may be those of a salt)

melting point [°C]	SMILES
106 to 110	O=C(O)[C@H]1CN(c2ccc(C3=CCSCC3)c(F)c2)C(=O)O1
< 50	CCCOCOCCc1ccc(OCCCOC(=O)C2=C(C)NC(C)=C(C(=O)OC)[C@@H]2c2cccc([N+](=O)[O-])c2)cc1
160 to 161	CC(C)C(=O)n1cc(-c2ccc(Oc3ccccc3)cc2)c2c(N)ncnc21
222 to 223	CC(=S)Nc1ccc(-c2nc3ccccc3s2)cc1
130 to 133	Nc1cc(Oc2ccc(-c3ccc(Oc4cc(N)cc(C(F)(F)F)c4)cc3)cc2)cc(C(F)(F)F)c1
147 to 149	Cc1ccc(C2c3c(C)c(N4CCN(c5cc(C)cc(C)c5)CC4)c(C)c(C)c3OC2(C)C)cc1 (centres undefined)
253 to 254	COc1cc(C(=O)NS(=O)(=O)c2ccccc2C)ccc1Cc1cn(C(=O)NC(c2ccccc2)c2ccccc2)c2ccc(NC(=O)OC3CCCC3)cc12
264 to 266	COc1ccc(C#N)cc1-c1cc(-c2ccc(C#N)cc2[N+](=O)[O-])no1
240 to 243	Nc1cc(-c2cccnc2)ccc1S(N)(=O)=O
138 to 143	COc1ccc(Cn2c(=O)c3c(Cl)cc(Cl)cc3n(Cc3ccccc3)c2=O)cc1
> 260	O=C(NN=Cc1ccc(Cl)cc1)c1[nH]c2ccccc2c1C(=O)Nc1ccccc1
256 to 258	CN1CCN(c2cc3c(cc2F)c(=O)c(C(=O)O)cn3CCF)CC1
64 to 65	CCC(=O)c1cc(CC)c(OC)cc1OC
110	COc1ccc(-c2nc(-c3cccn3C)[nH]c2-c2ccc(OC)cc2)cc1
154	CCOC(=O)c1ncc2[nH]c3ccc(Oc4ccc(OC)cc4)cc3c2c1COC
141 to 144	O=S(=O)(c1ccc(I)cc1)N1CCOCC1
78	O=C(O)C1Cc2ccccc2N1S(=O)(=O)c1ccc(-c2cccc(Cl)c2)cc1 (centres undefined)
105 to 107	O=C(CBr)c1ccc(OCC(=O)N2CCOCC2)cc1
68 to 69	C#CCOc1ccc(C=NOC)cc1OC
161 to 163	CCOC(=O)c1ccc(-c2ccc(-c3ccccc3O)c(-c3ccc4c(c3)C(C)(C)CCC4(C)C)c2)cc1
142 to 143	CCCCOc1c(CNC(=O)OC(C)(C)C)n(CC(C)C)c(=O)c2ccc(C(=O)N(C)OC)cc12
115	CCCCC(=O)Nc1cccc(NC(=O)C=C(C)OC)c1
198 to 200	Clc1ccc2[nH]c3c(c2c1)CN(CCc1ccccn1)CC3
243 to 244	O=C(NC=Cc1ccc(O)cc1)c1ccc(Cl)cc1

melting point [°C]	SMILES
117 to 120	COC(=O)c1ccc(OC)cc1OC(=S)N(C)C
74 to 76	Cc1[nH]cnc1CSCCO
106 to 110	O=C(c1ccccc1)C(Cl)Cn1cnc(Cl)c1 (centres undefined)
139 to 140	Cc1oc(-c2ccccc2)nc1COc1ccc(COc2cncc(CC(=O)O)c2)cc1
70	COc1ccc(C2CSc3ccccc3N(CCCl)C2=O)cc1 (centres undefined)
125 to 128	NC(=O)N(O)Cc1ccoc1
51 to 53	NC(=O)COCCOCCN1CCC(=C(c2ccccc2)c2ccccc2)CC1
47 to 49	N#CC1CCCn2cccc21 (centres undefined)
125 to 130	O=C1NC(Cc2ccccc2)=C2OCOCOC2C(Cc2ccccc2)N1 (centres undefined)
133 to 136	CC(=O)N1CCN(c2cc(Cl)c(Cl)c(Cl)c2)CC1
51 to 53	O=C1NC(=O)C(Cc2ccc(CCNCC(O)COc3ccc(OCc4ccccc4)cc3)cc2)S1 (centres undefined)
147 to 149	Oc1ccccc1-c1nc(-c2ccccc2O)nc(-c2ccccc2O)n1
196 to 198	NNC(=S)NCc1ccc([N+](=O)[O-])cc1
152	O=C1C(O)=C([N+](=O)[O-])C(=O)c2ccc(F)cc21
82 to 83	COc1ccc(-c2ccccc2C#N)cc1
211 to 213	CCOC(=O)c1cc(Br)cc2c(=O)cc(-c3cccc(OCc4ccc5ccccc5c4)c3)oc12
113 to 118	CC1(C)CC2(CC(C)(C)N1)NC(=O)N(CC(O)COc1ccc(Cc3ccc(OCC(O)CN4C(=O)NC5(CC(C)(C)NC(C)(C)C5)C4=O)cc3)cc1)C2=O (centres undefined)
160 to 162	Cc1cc(SC2=C(O)C[C@@](CCc3ccccc3)(C(C)C)OC2=O)c(C(C)C)c2sc(N)nc12
100 to 102	CCn1ccc(C2(c3cccc(-c4cncnc4)c3)N=C(N)N(C)C2=O)c1 (centres undefined)
81 to 83	CC(=O)C1COc2ccccc2C1=O (centres undefined)
100 to 101	Cc1noc(CCNC(c2ccccc2)(c2ccccc2)c2ccccc2)n1
121 to 124	CCOP(=O)(CCCOn1cnc2c(Cl)nc(NC=O)nc21)OCC
201 to 202	Cc1noc(-c2cc(O)c(O)c([N+](=O)[O-])c2)n1
180 to 181	CC1CCCC1n1ncc(-c2ccc(S(C)(=O)=O)cc2)c(-c2ccc(F)cc2)c1=O (centres undefined)

melting point [°C]	SMILES
20	O=C(O[C@@H]1CC[C@H]1Cl)c1ccccc1 (relative stereo)
43 to 45	c1ccc(Cn2ccc3ccccc32)cc1
172 to 174	CC(=CCc1c(C)nc(N)nc1N)c1cc(Cl)ccc1Cl
208	O=C1c2ccccc2CN1c1ccccc1CCN1CCN(c2nsc3ccccc23)CC1
59 to 61	Cc1ccc(S(=O)(=O)OCC(C)(C)CS(N)(=O)=O)cc1
253 to 254	Cn1ncc(C(=O)N2CCC2)c1C(=O)Nc1ccn2nc(-c3cccnc3)nc2c1
186 to 187	COC(=O)c1sc(-c2ccc(C#N)cc2)nc1C
185 to 186	CC(=O)Nc1ccc(C(=O)C=CN(C)C)cc1
> 260	Cc1ccc(-n2nc(C(C)(C)C)cc2NC(=O)Nc2ccc(-c3c(C(N)=O)[nH]c4ccccc34)cc2)cc1
116 to 118	CCCOc1ccccc1C(=O)Nc1cccnc1C(N)=O
157 to 159	O=C(c1cc(C(F)(F)F)cc(C(F)(F)F)c1)N1CCC2(CC1)C(=O)NCN2c1ccccc1Cl
98 to 99	CCC(=O)c1ccc(-c2ccccc2)cc1
130	N#Cc1ccc(OCc2ccccc2)cc1O
123	CCN(CC(O)CCl)c1ccc2c(c1)C(=O)N(C)C2=O (centres undefined)
160 to 162	COCOc1cc(F)ccc1-c1cc(-c2cccc(C(=O)OC)c2)c(C#N)c(NC(=O)c2ccco2)n1
> 250	Cn1cc(Br)nc(Nc2cccnc2)c1=O
153 to 154	O=C(NCCCCCCCNC(=O)c1ccc(OC(F)(F)C(F)Cl)cc1)c1ccc(OC(F)(F)C(F)Cl)cc1 (centres undefined)
177	COc1ccccc1C1CCC(=O)C=C1C(=O)O (racemic)
90	CCOC(=O)c1cc(CC)sc1Nc1ccc(F)cc1[N+](=O)[O-]
245 to 246	CC(C)(C)OC(=O)N1CCN(c2nc(N)nc3nc(N)c(-c4ccccc4)nc23)CC1
108 to 114	CC(C)C[C@@H](C=NNC(N)=O)NC(=O)[C@H](Cc1c[nH]cn1)NC(=O)C(CCCCc1ccccc1)Cc1cccc2ccccc12 (some centres undefined)
169 to 171	CC(C)[C@H](NC(=O)OCc1ccccn1)C(=O)N[C@@H](Cc1ccccc1)[C@@H](O)C[C@H](Cc1ccccc1)NC(=O)OCc1cccnc1
63 to 66	C[C@H]1CCCC(C)(C)[C@@H]1[C@H](O)c1ccc(C(F)(F)F)cc1
> 250	CCc1ccc(Nc2nc3cc(NC(=O)c4cc([N+](=O)[O-])ccc4Cl)ccc3o2)cc1

melting point [°C]	SMILES
50.5 to 51.5	CCCCc1n[nH]c(CCCC)n1
183 to 185	Cc1ccc(C(=O)NC(NC(=S)Nc2cc(F)ccc2F)C(F)(F)F)cc1 (centres undefined)
226 to 228	O=C(O)c1sc(Oc2ccc3c(c2)OCO3)c2c1CCc1cnoc1-2
165 to 166	O=C1C=CC(O)(c2cc3ccccc3n2S(=O)(=O)c2ccc(F)cc2)C=C1
202 to 204	Oc1ccc(OCCCCOc2ccc(O)cc2)cc1
146 to 147	N#Cc1cc2n(c1)CCc1ccccc1C2=O
129	COc1ccc(CNc2nc(OCc3ccccn3)ncc2C(=O)c2cc(OC)c(OC)c(OC)c2)cc1Cl
91 to 95	CN1CCN(C(=O)N2CC(Oc3ccc(Br)cc3)C2)CC1
182 to 183	ON=Cc1c(-c2ccccc2Cl)ccc2c1OCO2
218 to 219	Cn1ncc(/C=C/C(=O)O)c1-c1ccoc1
255	CC(C)NC(=NC#N)Nc1ccc(C2=NNC(=O)CC2C)cc1 (centres undefined)
166 to 167	Cc1ccc(-c2cncnc2N)cc1
110 to 111	Cc1cn(C(C)(C)C(=O)N(C)C)nc1-c1ccc(Cl)cc1Cl
168 to 169	CC(C)c1ccccc1Sc1c(O)cc(-c2cc(Cl)cc(Cl)c2)oc1=O
138 to 139	O=CN1CCN(c2nc3cccc4c3n2CCC4)CC1
148	COc1cccc(N(CC(=O)OC(C)(C)C)C(=O)CN2C(=O)c3ccccc3C2=O)c1
83 to 84	CCOC(=O)c1ccc(/C=C(\C)c2cc3c(s2)C(C)(C)CCC3(C)C)nc1
90 to 93	CC(C)c1ncc2cc(Cl)nc(Cl)n12
157 to 158	Cc1oc(C=Cc2cccc(C(F)(F)F)c2)nc1CC(=O)O
105 to 106	COc1ccccc1CN1CCCc2cc(OCc3ccccc3)c(OC)cc2C1
79 to 81	CCCCCCCCCCCCCCCCCCOC(=O)Cc1cc(C(C)(C)C)c(O)c(C)c1C
67 to 68	CCCCCCOc1ccc(C=C(C#N)c2cccnc2)cc1
99.5 to 100	CCOC(=O)C(C(=O)OCC)c1csc(N)n1

SMILES	melting point [°C]
COC(=O)[C@@]12CN(Cc3ccccc3)C[C@@H]1[C@@](O)(c1ccc(SC)cc1)CC[C@H]2c1ccccc1 (racemic)	124 to 126
COc1ccc2c(c1)C1(CCNC1)CC2O (centres undefined)	135 to 138
N#CC1(Cl)C=C(O)C=NC1 (centres undefined)	182 to 184
CC12CCC(=O)CC1CCC1C2CCC2(C)C(O)C(N=[N+]=[N-])CC12 (centres undefined)	165 to 167
